These results are taken from US20230405002A1, “COMBINATIONS OF DIACYLGLYCEROL ACYLTRANSFERASE 2 INHIBITORS AND ACETYL-COA CARBOXYLASE INHIBITOR” (Pfizer Inc., priority 2020, published 2023).

Format in all cases: in vivo, rat
For assay [1], the system named is Western diet fed Sprague Dawley rats. Kind of assay: Compound A / Compound D study in Western diet fed rats: hepatic triglyceride (steatosis). As to conditions: relative to vehicle administered Western diet fed rats. As to the method: (§1) A randomized, vehicle-controlled, 8-parallel arm study was conducted in male Sprague-Dawley rats (Charles River (Boston, MA)) to obtain circulating and hepatic TG levels. Standard laboratory conditions were used to house 96 rats (˜200 g); they were double housed and kept under 12:12-hour reverse light-dark schedule (lights off at 8:00 AM). Rats were randomized into chow or Western diet groups and dose groups upon arrival and were given a 14-day lead-in period on either standard rat chow or Western diet prior to the start of the study. Standard Laboratory Rodent chow diet, 5053, was from LabDiet (PMI, St Louis, Missouri). Western Diet, D12079Bi, was from Research Diets (New Brunswick, NJ).
For these studies, vehicle was prepared to make a 0.5% (wt/volume) of methyl cellulose (MC, Sigma Aldrich, 274429) in deionized water.
On the last day of the study (Day 28), rats were sacrificed for tissue collection after a 4 hour fast, 2 hours post-dose: two hours post-dose, blood for determining plasma analytes was collected via lateral tail vein and then the animals were sacrificed by CO2 asphyxiation. Blood was transferred to BD Microtainer tubes coated with K2EDTA (PN365974), centrifuged at 4° C. and the plasma transferred to a 96-well microtitre plate and stored at −20° C. Livers were rapidly removed, freeze-clamped in a Wollenberg clamp pre-cooled in liquid N2 individually wrapped in aluminum foil and subsequently stored at −80° C.
Tissue pulverization: Frozen livers were rapidly pulverized on an aluminum block cooled in liquid N2, ensuring the tissue remained frozen throughout the pulverization. The pulverized tissues were transferred and stored in 7 mL polypropylene conical tubes at −80° C. until analysis.
Extraction for hepatic triglyceride: Approximately 50 to 100 mg of pulverized tissue was added to a 2 mL lysing matrix D tube (MP Bio) containing 800 μL ice cold 1:1 CHCl3:MEOH. Samples were immediately extracted at 4° C. using Qiagen Tissue Lyser II (Qiagen Cat No. 85300) for 4 minutes at 30 Hz. The homogenate was then transferred to 13×100 mm glass tubes and placed on ice. The lysis tubes were then rinsed with 800 μL of 1:1 CHCl3:MeOH, vortexed for 30 seconds and added to the 13×100 mm glass tubes. While on ice, 2.4 ml of 100% CHCl3 was added to all glass vials to bring the ratio of CHCl3:MeOH to 4:2. Samples were then placed in the −20° C. freezer overnight. On the following day, 1.75 mL 1 M KCl H2O was added to bring the ratio to 4:2:1.75 ratio CHCl3:MeOH:H2O. Samples were then vortexed for 30 seconds and centrifuged at 1500 rpm×15 min., at 4° C. After centrifugation, the organic phase was transferred to a fresh 13×100 mm extraction tube, dried down at 37° C. under N2 and re-suspended in 750 μL CHCl3. […]

The next assay deals with SREBP-1. Kind of assay: Compound A / Compound D study in Western diet fed rats: nuclear SREBP-1 localization (Western blot). Particulars: high dose; relative to vehicle treated Western diet fed rats. As to the method: as §1
Nuclear and Membrane fractions were prepared by ultracentrifugation using standard methods from a portion of the pulverized liver samples, that were pooled per treatment group. Samples from the nuclear extract and the membrane fractions were analyzed by Western blotting for SREBP1. Western blots for Calnexin was used as a marker for the membrane fraction, actin as a marker for total sample loading, and Histone 2B as a marker for the nuclear fraction. Nuclear SREBP1 levels were quantified using relative units and normalized to Histone 2B to control for sample loss during the nuclear fractionation and gel loading.

The subject of assay [2] is ACC1, FASN, SCD1, PCSK9 and SREBP-1c. Kind of assay: Compound A / Compound D study in Western diet fed rats: hepatic lipogenic gene expression (qPCR). As to conditions: relative to Western diet fed vehicle treated rats. As to the method: as §1
Another portion of the pulverized liver was processed and analyzed for lipogenic gene expression. Rat taqman probes against ACC1, FASN, SCD1, PCSK9 and SREBP-1c were all assessed using Actb as housekeeping gene on qPCR.
For orientation: Quantitative PCR measures a nucleic acid by following its amplification.

The mark [3] stands for this setting: high dose (Compound A 10 mg/kg QD, Compound D 30 mg/kg BID).
Setting [4] is: low dose (Compound A 1 mg/kg QD, Compound D 5 mg/kg BID).

With `COc1cc(C(=O)N2CCC3(CC2)CC(=O)c2c(cnn2C(C)C)C3)cc(-c2ccc(C(=O)O)cc2)n1` [Compound A, 4-(4-(1-isopropyl-7-oxo-1,4,6,7-tetrahydrospiro[indazole-5,4′-piperidine]-1′-carbonyl)-6-methoxypyridin-2-yl)benzoic acid], the “reduction in steatosis (hepatic triglyceride)” value is recorded as 53% in assay [1] (setting [3]) and 36% in assay [1] (setting [4]). In addition, the “nuclear SREBP-1 localization” value with SREBP-1 is recorded as “increased nuclear localization of SREBP-1”. The “hepatic lipogenic gene expression (ACC1, FASN, SCD1, SREBP1, PCSK9)” value in assay [2] is “trended to further increase”.

In the case of `CCOc1cccnc1Oc1cncc(-c2ncc(C(=O)N[C@H]3CCOC3)cn2)c1` [Compound D, (S)-2-(5-((3-ethoxypyridin-2-yl)oxy)pyridin-3-yl)-N-(tetrahydrofuran-3-yl)pyrimidine-5-carboxamide], the “reduction in steatosis (hepatic triglyceride)” value in assay [1] (setting [3]) was 30%; in assay [1] (setting [4]) it was 25%. Further, in the assay on SREBP-1, the “nuclear SREBP-1 localization” value is reported as “reduced SREBP-1 nuclear localization”. Also, the “hepatic lipogenic gene expression (ACC1, FASN, SCD1, SREBP1, PCSK9)” value in assay [2] is listed as “decreased expression of all of the lipogenic genes”.
